Measurements: US20250248970A1, “NOVEL SUBSTITUTED FLUORINATED N-PROPYL-PYRROLIDINE COMPOUNDS, PROCESSES FOR THEIR PREPARATION AND THERAPEUTIC USES THEREOF” (SANOFI, priority 2022, published 2025)

How the values were obtained:
ERα = biological target: T1, ERα (Homo sapiens, UniProt P03372); experiment: Estrogen receptor degradation activity (breast cancer cell ERα in cell western assay); type: cell-based; conditions: MCF7 cells; for % Degradation At 0.3 μM: 4 hours, % of ERα levels decrease relative to fulvestrant
T1 construct: host or cells: MCF7
T1 sequence (P03372 1-595): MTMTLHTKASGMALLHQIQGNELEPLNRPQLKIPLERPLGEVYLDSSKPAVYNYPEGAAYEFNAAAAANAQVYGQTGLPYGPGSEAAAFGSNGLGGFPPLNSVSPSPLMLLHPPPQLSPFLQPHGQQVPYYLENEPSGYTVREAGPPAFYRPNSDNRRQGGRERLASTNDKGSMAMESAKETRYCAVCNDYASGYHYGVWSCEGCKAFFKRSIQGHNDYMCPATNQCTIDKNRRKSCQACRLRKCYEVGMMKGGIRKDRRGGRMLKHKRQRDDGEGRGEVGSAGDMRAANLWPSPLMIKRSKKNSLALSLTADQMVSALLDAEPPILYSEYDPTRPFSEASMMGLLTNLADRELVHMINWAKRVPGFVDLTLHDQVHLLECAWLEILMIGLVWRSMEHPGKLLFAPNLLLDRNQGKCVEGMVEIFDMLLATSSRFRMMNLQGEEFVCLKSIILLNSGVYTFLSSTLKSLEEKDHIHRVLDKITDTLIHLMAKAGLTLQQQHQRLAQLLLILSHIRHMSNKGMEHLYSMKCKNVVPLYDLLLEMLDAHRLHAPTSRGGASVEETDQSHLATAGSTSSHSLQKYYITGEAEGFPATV
Method: Said test involves measuring the in vitro degradation activity of the compounds of the Table 1a.
The measurements of the degradation activities were made using a breast cancer cell ERα in cell western assay as described hereunder.
MCF7 cells (ATCC) were seeded in 384 wells microplate (collagen coated) at a concentration of 10000 cells/30 μL per well in red phenol free MEM alpha medium (invitrogen) containing 5% charcoal dextran striped FBS. The following day, 9 points serial 1:5 dilution of each compound was added to the cells in 2.5p L at final concentrations ranging from 0.3-0.0000018 μM (in table 2), or 0.1 μM for fulvestrant (using as positive control). At 4 hours post compound addition the cells were fixed by adding 25 μL of formalin (final concentration 5% formalin containing 0.1% triton) for 10 minutes at room temperature and then washed twice with PBS. Then, 50 μL of LI-COR blocking buffer containing 0.1% Triton was added to plate for 30 minutes at room temperature. LI-COR blocking buffer was removed and cells were incubated overnight at cold room with 50 μL anti-ER rabbit monoclonal antibody (Thermo scientific MA1-39540) diluted at 1:1000 in LI-COR blocking buffer containing 0.1% tween-20. Wells which were treated with blocking buffer but no antibody were used as background control. Wells were washed twice with PBS (0.1% tween-20) and incubated at 37° C. for 60 minutes in LI-COR (0.1% tween-20) containing goat anti-rabbit antibody Alexa 488 (1:1000) and Syto-64 a DNA dye (2 μM final concentration). Cells were then washed 3 times in PBS and scanned in ACUMEN explorer (TTP-Labtech). Integrated intensities in the green fluorescence and red fluorescence were measured to determine the levels of ERα and DNA respectively.
The degradation activity with respect to estrogen receptors in this test is given by the concentration which degrades 50% of the estrogen receptor (or IC50) in nM.
The % of ERα levels decrease were determined as follows: % inhibition=100*(1−(sample−fulvestrant: DMSO−fulvestrant)).

CYP3A4 = CYP3A4 induction potential for ADME profile evaluation (CYP3A4 mRNA by RT-PCR in primary human hepatocytes); type: in vitro ADME; conditions: approximately 48 hours, 0.3-10 μM, relative to 10 μM rifampicin
Method: Such test is based, for example, on the quantification of CYP3A4 mRNA induction performed by RT-PCR analysis. Said % Emax may be calculated as detailed in the illustrative part under the following formula:
[formula] • ECompound: relative fold mRNA expression following treatment with test compound, • EPositive control: relative fold mRNA expression following reference inducer i.e., 10 μM rifampicin, • EVehicle control: relative fold mRNA expression following vehicle treatment i.e., 0.1% DMSO, and • E is the efficiency of the quantitative PCR.
Said test evaluates the potential induction effect of the tested compounds on CYP3A4 gene expression in primary cultures of human hepatocytes from one or two donors with established concentration-dependent response to the reference inducer, rifampicin.
Before seeding, cell viability was estimated using the Trypan blue dye exclusion test. Hepatocytes were seeded on collagen I-coated 96-well plates at a density of 70 000 cells/well in 100 μL of plating medium for at least 4 hours under a humidified atmosphere of CO2/air (5%/95%), at 37° C. After the cell attachment period, the plating medium was removed, and the hepatocytes were treated daily for 2 consecutive days (approximately 48 hours), with 100 μL per well of fresh culture medium containing either the vehicle control (0.1% DMSO) or the investigated compounds at four concentrations 0.3, 1, 3 and 10 μM, or rifampicin, the reference inducer at 10 μM. All incubations were performed in duplicates.
Ten mM stock solutions of the different compounds were diluted to obtain 0.3, 1 and 3 mM daughter solutions. The day of the experiment, stock solutions were diluted 1000-fold in the incubation/culture medium to achieve final concentrations of 0.3, 1, 3 and 10 μM.
After the 48-hour incubation period with the test compounds, the cell culture medium was removed, and the cells were lysed to release the RNA for CYP3A4 gene expression assessment. Quantification of CYP3A4 mRNA induction was performed by RT-PCR analysis.
Total RNA was extracted from hepatocytes using the King Fisher™ Flex Purification System with the MagMAX mirVana Total RNA Isolation kit (Thermo Fisher Scientific, USA). RNA was quantified by fluorimetry using the Quantifluor RNA System (Promega, USA) and cDNAs were synthesized from […] total RNA using the iScript Reverse Transcription Supermix for RT-qPCR from Biorad (France) at 42° C. for 30 min. cDNA samples were then diluted in water (1:5) and 5 μL of each sample was used for real-time PCR amplification by using the SYBR Green kit from Biorad (France). The following program was used: a denaturation step at 95° C. for 30 sec, and 40 cycles of PCR (denaturation, 95° C., 10 sec and annealing and extension, 58° C., 1 min). In all cases, the quality of the PCR product was assessed by monitoring a fusion step at the end of the run. Human forward and reverse primer sequences used were: 5′-CCT-GGC-ACC-CAG-CAC-AAT-3′ and 5′-GGG-CCG GAC-TCG-TCA-TAC-3′ for actin, 5′-CAC-AAA-CG-GAG-GCC-TTT-TG-3′ and 5′-ATC-CAT-GCT-GTA-GGC-CCC-AA-3′ for CYP3A4.
Cq (quantification cycle) values were determined using a multi-variable, non-linear regression model to individual well traces and then using this model an optimal Cq value was computed. Cq values are inversely proportional to the amount of target nucleic acid in the sample (i.e., lowest Cq level corresponds to the greatest amount of target nucleic acid in the sample). Cq of reference gene (in this study human actin) was also used as positive control of quantitative PCR.
The extent of induction or % of Emax, resulting from treatment with test compounds was calculated under the following formula: […]

SMILES	% Degradation At 0.3 μM (ERα)	CYP3A4 induction Emax (%) (CYP3A4)	degradation activity on estrogen receptors (in words) (ERα; tested at 0.3 μM)
O=C(O)c1ccc2c(c1)CCCC(c1cccc(Cl)c1F)=C2c1ccc(CC2CCN(CCCF)C2)cc1 (single isomer, unassigned; isomer 1) [Compound 16, 8-(3-chloro-2-fluorophenyl)-9-(4-((1-(3-fluoropropyl)pyrrolidin-3-yl)methyl)phenyl)-6,7-dihydro-5H-benzo[7]annulene-3-carboxylic acid, Isomer 1]	88%	22%	–
O=C(O)c1ccc2c(c1)CCCC(c1ccc(Cl)cc1Cl)=C2c1ccc(O[C@H]2CCN(CCCF)C2)cc1 [(C1), reference compound]	–	93%	–
Cc1cc(F)ccc1C1=C(c2ccc(CC3CCN(CCC(F)F)C3)cc2)c2ccc(C(=O)O)cc2CCC1.Cl (single isomer, unassigned; isomer 1) [Compound 4, 9-(4-((1-(3,3-difluoropropyl)pyrrolidin-3-yl)methyl)phenyl)-8-(4-fluoro-2-methylphenyl)-6,7-dihydro-5H-benzo[7]annulene-3-carboxylic acid hydrochloride, Isomer 1]	83%	30%	–
Cl.O=C(O)c1ccc2c(c1)CCCC(c1ccc(F)cc1Cl)=C2c1ccc(CC2CCN(CCCF)C2)cc1 (single isomer, unassigned; isomer 1) [Compound 2, 8-(2-chloro-4-fluorophenyl)-9-(4-((1-(3-fluoropropyl)pyrrolidin-3-yl)methyl)phenyl)-6,7-dihydro-5H-benzo[7]annulene-3-carboxylic acid hydrochloride, Isomer 1]	74%	23%	–
Cc1c(Cl)cccc1C1=C(c2ccc(CC3CCN(CCC(F)F)C3)cc2)c2ccc(C(=O)O)cc2CCC1.Cl (single isomer, unassigned; isomer 1) [Compound 6, 8-(3-chloro-2-methylphenyl)-9-(4-((1-(3,3-difluoropropyl)pyrrolidin-3-yl)methyl)phenyl)-6,7-dihydro-5H-benzo[7]annulene-3-carboxylic acid hydrochloride, Isomer 1]	81%	8%	–
O=C(O)c1ccc2c(c1)CCCC(c1ccc(Cl)cc1Cl)=C2c1ccc(N[C@H]2CCN(CCCF)C2)cc1 [Compound C2, (S)-8-(2,4-Dichlorophenyl)-9-(4-((1-(3-fluoropropyl)pyrrolidin-3-yl)amino)phenyl)-6,7-dihydro-5H-benzo[7]annulene-3-carboxylic acid, reference compound]	89%	85%	significant degradation activity
Cl.O=C(O)c1ccc2c(c1)CCCC(c1ccc(F)cc1C(F)(F)F)=C2c1ccc(CC2CCN(CCC(F)F)C2)cc1 (single isomer, unassigned; isomer 1) [Compound 5, 9-(4-((1-(3,3-difluoropropyl)pyrrolidin-3-yl)methyl)phenyl)-8-(4-fluoro-2-(trifluoromethyl)phenyl)-6,7-dihydro-5H-benzo[7]annulene-3-carboxylic acid hydrochloride, Isomer 1]	80%	13%	–

Second part, the compound after the results:

% Degradation At 0.3 μM (ERα)	CYP3A4 induction Emax (%) (CYP3A4)	degradation activity on estrogen receptors (in words) (ERα; tested at 0.3 μM)	SMILES
85%	15%	–	Cc1cccc(C2=C(c3ccc(CC4CCN(CCCF)C4)cc3)c3ccc(C(=O)O)cc3CCC2)c1C(F)(F)F (single isomer, unassigned; isomer 1) [Compound 30, 9-(4-((1-(3-fluoropropyl)pyrrolidin-3-yl)methyl)phenyl)-8-(3-methyl-2-(trifluoromethyl)phenyl)-6,7-dihydro-5H-benzo[7]annulene-3-carboxylic acid, Isomer 1]
87%	42%	–	Cl.O=C(O)c1ccc2c(c1)CCCC(c1cccc(F)c1Cl)=C2c1ccc(CC2CCN(CCCF)C2)cc1 (single isomer, unassigned; isomer 1) [Compound 21, 8-(2-chloro-3-fluorophenyl)-9-(4-((1-(3-fluoropropyl)pyrrolidin-3-yl)methyl)phenyl)-6,7-dihydro-5H-benzo[7]annulene-3-carboxylic acid hydrochloride, Isomer 1]
90%	34%	–	Cc1c(C2=C(c3ccc(CC4CCN(CCCF)C4)cc3)c3ccc(C(=O)O)cc3CCC2)cccc1C(F)(F)F.Cl (single isomer, unassigned; isomer 1) [Compound 12, 9-(4-((1-(3-fluoropropyl)pyrrolidin-3-yl)methyl)phenyl)-8-(2-methyl-3-(trifluoromethyl)phenyl)-6,7-dihydro-5H-benzo[7]annulene-3-carboxylic acid hydrochloride, Isomer 1]
90%	26%	–	Cl.O=C(O)c1ccc2c(c1)CCCC(c1cccc(Cl)c1C(F)(F)F)=C2c1ccc(CC2CCN(CCCF)C2)cc1 (single isomer, unassigned; isomer 1) [Compound 13, 8-(3-chloro-2-(trifluoromethyl)phenyl)-9-(4-((1-(3-fluoropropyl)pyrrolidin-3-yl)methyl)phenyl)-6,7-dihydro-5H-benzo[7]annulene-3-carboxylic acid hydrochloride, Isomer 1]
